# Read-outs that look alike come from different tables or passages of the source.
# Key:
# [1] = system: Pseudomonas aeruginosa 01 (Pa01); test: MIC determination; assay type: cell-based; settings: Pseudomonas aeruginosa, Table 2; read-out: in vitro activity (MIC)
# Description: (§1) Table 3 that was included in the first Example 4 section provides antibacterial data for the first synthetic sideromycins we prepared and studied. The second Example 4 section elaborated and expanded on that data with inclusion of representative antibacterial data in the text and associated pictures of Petri dish assays. MIC (minimum inhibition concentration) is given in μM and AD (agar diffusion zones of inhibition are given in mm from Kirby-Bauer Petri dish growth inhibition studies).
# E. coli DC0 = test: MIC determination; assay type: cell-based; settings: Escherichia coli
# Description: as §1
# [2] = system: strains of Pseudomonas and Acinetobacter; test: Antibacterial activity, general statements; assay type: cell-based; settings: general statements of the text
# Experimental: Antibiotic activity was determined using agar diffusion assays against representative Gram-negative bacteria, including Pseudomonas aeruginosa (Pa6), and several multidrug resistant forms of Acinetobacter baumannii. Representative results are shown in Table 1 and a corresponding picture of an actual petri dish showing the agar diffusion results (FIG. 4). […].
# A. baumannii ARC 3486 = test: MIC determination; assay type: cell-based; settings: Acinetobacter baumannii, ARC3486; Table 2; read-out: in vitro activity (MIC)
# P. aeruginosa Pa6 = test: Agar diffusion assay; assay type: cell-based, Pseudomonas aeruginosa; settings: M-HII media, 0.5 mM (ciprofloxacin 5 μg/ml), 50 uL per well, 37° C. 20 hrs, P unclear, V very unclear zone
# Experimental: (§2) Antibiotic activity was determined using agar diffusion assays against representative Gram-negative bacteria, including Pseudomonas aeruginosa (Pa6), and several multidrug resistant forms of Acinetobacter baumannii. Representative results are shown in Table 1 and a corresponding picture of an actual petri dish showing the agar diffusion results (FIG. 4). […]. [table]
# S. Aureus ISR 14-001 = test: MIC determination; assay type: cell-based; settings: Staphylococcus aureus; Table 2; read-out: in vitro activity (MIC)
# [3] = system: Burkholderia multivorans AU0100; test: MIC determination; assay type: cell-based; settings: Table 2, read-out: in vitro activity (MIC)
# A. baumannii BAA 1710 = test: Agar diffusion assay; assay type: cell-based, Acinetobacter baumannii; settings: M-HII media, 0.5 mM (ciprofloxacin 5 μg/ml), 50 uL per well, 37° C. 20 hrs, P unclear zone
# Experimental: as §2
# A. baumannii BAA 1800 = test: Agar diffusion assay; assay type: cell-based, Acinetobacter baumannii; settings: M-HII media, 0.5 mM (ciprofloxacin 5 μg/ml), 50 uL per well, 37° C. 20 hrs
# Experimental: as §2
# A. baumannii BAA 1797 = test: Agar diffusion assay; assay type: cell-based, Acinetobacter baumannii; settings: M-HII media, 0.5 mM (ciprofloxacin 5 μg/ml), 50 uL per well, 37° C. 20 hrs, P unclear zone
# Experimental: as §2
# A. baumannii BAA 1793 = test: Agar diffusion assay; assay type: cell-based, Acinetobacter baumannii; settings: M-HII media, 0.5 mM (ciprofloxacin 5 μg/ml), 50 uL per well, 37° C. 20 hrs, P unclear zone
# Experimental: as §2
# A. baumannii ISR 14-0061 = test: MIC determination; assay type: cell-based; settings: Acinetobacter baumannii, ISR140061; Table 2; read-out: in vitro activity (MIC)
# S. Aureus ISR-002 = test: MIC determination; assay type: cell-based; settings: Staphylococcus aureus; Table 2; read-out: in vitro activity (MIC)
# A. baumannii ATCC 17961 = test: MIC determination; assay type: cell-based, Acinetobacter baumannii; settings: Acinetobacter baumannii, ATCC17961, Table 2; read-out: in vitro activity (MIC)
# Description: as §1
# [4] = system: Acinetobacter baumannii ATCC 17961; test: In vivo activity against Acinetobacter baumannii in mice (FIG. 7); settings: 50 mg/kg IV at 30 min and 24 hr post inoculation; IP 10^8 A. baumannii ATCC 17961; female ICR mice
# Experimental: Y-axis is percent surviving; x-axis is days after inoculation. Note: 5/5 Vehicle and 5/5 daptomycin treated mice were all dead at Day 1; […] female ICR mice; IP inoculation with 10^8 Acinetobacter baumannii ATCC 17961; Treatment administered IV at 30 min and 24 hr post inoculation; Treatments—Ciprofloxacin 50 mg/kg, HT-10100 mg/kg, HT-10 50 mg/kg, HT-10 25 mg/kg, HT-10 10 mg/kg, HT-10 5 mg/kg, daptomycin 50 mg/kg, Vehicle.
# [5] = system: multi-drug resistant Acinetobacter; test: Dose dependent agar diffusion (FIG. 5); assay type: cell-based
# Description: Note Daptomycin is not active (arrow),
compound,measurement,setting,value
"O=C(O)c1cn(C2CC2)c2cc(N3CCNCC3)c(F)cc2c1=O [ciprofloxacin, reference compound]",MIC,[1],0.2 µM
same,MIC,"E. coli DC0; DC0, Table 2, printed E. coli DCO, read-out: in vitro activity (MIC)",0.2 µM
same,antibacterial activity (in words),[2],completely inactive
same,MIC,A. baumannii ARC 3486,> 5 µM
same,Zone of Growth Inhibition,P. aeruginosa Pa6,0 mm
same,MIC,S. Aureus ISR 14-001,0.2 µM
same,MIC,[3],> 5 µM
same,Zone of Growth Inhibition,A. baumannii BAA 1710,0 mm
same,Zone of Growth Inhibition,A. baumannii BAA 1800,0 mm
same,Zone of Growth Inhibition,A. baumannii BAA 1797,0 mm
same,Zone of Growth Inhibition,A. baumannii BAA 1793,0 mm
same,MIC,A. baumannii ISR 14-0061,> 5 µM
same,MIC,S. Aureus ISR-002,> 5 µM
same,MIC,A. baumannii ATCC 17961,0.2 µM
CCCCCCCCCC(=O)N[C@@H](Cc1c[nH]c2ccccc12)C(=O)N[C@H](CC(N)=O)C(=O)N[C@@H](CC(=O)O)C(=O)N[C@@H]1C(=O)NCC(=O)N[C@@H](CCCN)C(=O)N[C@@H](CC(=O)O)C(=O)N[C@H](C)C(=O)N[C@@H](CC(=O)O)C(=O)NCC(=O)N[C@H](CO)C(=O)N[C@@H]([C@H](C)CC(=O)O)C(=O)N[C@@H](CC(=O)c2ccccc2N)C(=O)O[C@@H]1C [daptomycin],MIC,[1],> 100 µM
same,MIC,"E. coli DC0; DC0, read-out: in vitro activity (MIC)",> 100 µM
same,antibacterial activity (in words),[2],completely inactive
same,MIC,A. baumannii ARC 3486,> 200 µM
same,treated mice dead at Day 1,[4],5/5
same,zone of inhibition at 500 µM,"P. aeruginosa Pa6; Pseudomonas aeruginosa, PA6, read-out: Zone of Growth Inhibition",0 mm
same,MIC,S. Aureus ISR 14-001,0.8 µM
same,MIC,[3],> 100 µM
same,in vitro activity (in words),[5],not active
same,zone of inhibition at 500 µM,"A. baumannii BAA 1710; Acinetobacter baumannii, BAA1710, read-out: Zone of Growth Inhibition",0 mm
same,zone of inhibition at 500 µM,"A. baumannii BAA 1800; Acinetobacter baumannii, BAA1800, read-out: Zone of Growth Inhibition",0 mm
same,zone of inhibition at 500 µM,"A. baumannii BAA 1797; Acinetobacter baumannii, BAA1797, read-out: Zone of Growth Inhibition",0 mm
same,zone of inhibition at 500 µM,"A. baumannii BAA 1793; Acinetobacter baumannii, BAA1793, read-out: Zone of Growth Inhibition",0 mm
same,MIC,A. baumannii ISR 14-0061,> 100 µM
same,MIC,S. Aureus ISR-002,0.8 µM
same,MIC,A. baumannii ATCC 17961,> 100 µM
